From ChEMBL document CHEMBL1201862, “PubChem BioAssay data set” (2004)
Values belong to the molecule of their own block, whether it stands above or below them. Active and inactive are the calls of the source.

Legend:
[1] = target: T1, Apoptotic protease-activating factor 1 (Homo sapiens, UniProt O14727); format: functional
T1 sequence (O14727 whole entry): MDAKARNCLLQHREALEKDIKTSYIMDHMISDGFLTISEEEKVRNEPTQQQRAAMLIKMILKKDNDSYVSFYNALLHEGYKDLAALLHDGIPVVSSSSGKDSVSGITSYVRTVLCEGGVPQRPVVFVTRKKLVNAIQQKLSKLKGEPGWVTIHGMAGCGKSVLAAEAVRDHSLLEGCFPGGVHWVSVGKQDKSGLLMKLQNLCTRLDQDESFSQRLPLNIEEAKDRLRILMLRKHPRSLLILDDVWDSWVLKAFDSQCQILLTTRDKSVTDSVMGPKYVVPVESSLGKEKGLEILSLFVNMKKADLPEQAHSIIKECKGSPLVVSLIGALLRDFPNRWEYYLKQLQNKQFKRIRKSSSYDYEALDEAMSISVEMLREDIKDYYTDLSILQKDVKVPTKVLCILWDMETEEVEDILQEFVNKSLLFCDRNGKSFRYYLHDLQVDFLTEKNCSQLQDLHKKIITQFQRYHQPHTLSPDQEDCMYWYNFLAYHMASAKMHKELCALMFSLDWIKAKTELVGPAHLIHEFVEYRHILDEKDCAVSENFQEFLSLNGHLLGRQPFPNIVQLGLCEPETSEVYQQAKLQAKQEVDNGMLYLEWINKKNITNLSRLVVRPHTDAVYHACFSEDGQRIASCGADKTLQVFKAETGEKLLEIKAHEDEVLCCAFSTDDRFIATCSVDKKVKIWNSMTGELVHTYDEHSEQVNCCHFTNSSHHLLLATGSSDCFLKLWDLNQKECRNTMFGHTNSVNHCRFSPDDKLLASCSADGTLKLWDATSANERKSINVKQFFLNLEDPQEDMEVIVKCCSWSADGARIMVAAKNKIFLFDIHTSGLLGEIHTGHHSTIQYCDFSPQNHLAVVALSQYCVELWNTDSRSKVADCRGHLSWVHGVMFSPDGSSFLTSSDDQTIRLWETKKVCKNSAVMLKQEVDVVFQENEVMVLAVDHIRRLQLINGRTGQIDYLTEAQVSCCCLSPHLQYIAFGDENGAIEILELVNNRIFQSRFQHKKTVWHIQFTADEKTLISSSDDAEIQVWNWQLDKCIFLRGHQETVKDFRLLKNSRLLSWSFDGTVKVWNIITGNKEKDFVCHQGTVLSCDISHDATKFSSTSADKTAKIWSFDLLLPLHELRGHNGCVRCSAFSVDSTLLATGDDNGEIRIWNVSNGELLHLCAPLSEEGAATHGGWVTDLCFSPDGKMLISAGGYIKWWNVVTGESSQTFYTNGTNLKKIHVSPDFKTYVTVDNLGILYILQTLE

[2] = target: T2, Histone-lysine N-methyltransferase NSD2 (Homo sapiens, UniProt O96028); format: biochemical
T2 sequence (O96028 whole entry): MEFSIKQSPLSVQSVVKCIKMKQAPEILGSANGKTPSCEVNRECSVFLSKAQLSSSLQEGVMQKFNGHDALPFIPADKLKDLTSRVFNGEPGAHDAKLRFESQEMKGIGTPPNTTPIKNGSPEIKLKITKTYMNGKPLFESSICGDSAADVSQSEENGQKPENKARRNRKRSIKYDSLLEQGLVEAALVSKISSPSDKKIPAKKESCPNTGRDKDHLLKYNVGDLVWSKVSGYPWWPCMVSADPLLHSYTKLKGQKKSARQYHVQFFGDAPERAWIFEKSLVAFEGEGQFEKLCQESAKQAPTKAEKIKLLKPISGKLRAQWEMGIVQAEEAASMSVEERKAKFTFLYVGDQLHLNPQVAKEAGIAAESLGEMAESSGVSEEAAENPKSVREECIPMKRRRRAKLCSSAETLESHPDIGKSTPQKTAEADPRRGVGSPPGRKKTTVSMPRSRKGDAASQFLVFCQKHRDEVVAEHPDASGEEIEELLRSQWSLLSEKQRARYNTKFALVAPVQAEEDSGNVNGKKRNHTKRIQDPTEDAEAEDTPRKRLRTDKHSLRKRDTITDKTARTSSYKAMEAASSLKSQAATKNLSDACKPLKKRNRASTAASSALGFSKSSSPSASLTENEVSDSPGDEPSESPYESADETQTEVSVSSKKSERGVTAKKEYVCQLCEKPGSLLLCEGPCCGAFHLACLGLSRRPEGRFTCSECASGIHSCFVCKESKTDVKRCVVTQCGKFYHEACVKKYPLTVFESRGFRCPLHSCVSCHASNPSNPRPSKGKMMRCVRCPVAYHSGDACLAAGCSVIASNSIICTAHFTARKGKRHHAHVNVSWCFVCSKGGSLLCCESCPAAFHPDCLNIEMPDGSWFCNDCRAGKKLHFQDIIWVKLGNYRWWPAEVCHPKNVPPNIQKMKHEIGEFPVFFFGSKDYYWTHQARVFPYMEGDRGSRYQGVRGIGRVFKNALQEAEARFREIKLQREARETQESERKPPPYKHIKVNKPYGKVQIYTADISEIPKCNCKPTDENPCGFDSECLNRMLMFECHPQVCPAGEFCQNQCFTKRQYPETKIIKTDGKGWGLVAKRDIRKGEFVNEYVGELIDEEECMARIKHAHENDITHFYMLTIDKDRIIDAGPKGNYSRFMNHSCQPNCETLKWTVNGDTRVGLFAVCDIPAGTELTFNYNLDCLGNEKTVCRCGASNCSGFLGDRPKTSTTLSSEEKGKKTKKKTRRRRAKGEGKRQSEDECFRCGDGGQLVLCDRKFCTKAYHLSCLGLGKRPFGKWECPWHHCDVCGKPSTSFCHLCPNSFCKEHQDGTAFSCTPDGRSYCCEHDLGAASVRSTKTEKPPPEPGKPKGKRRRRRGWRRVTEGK

[3] = target: Serine/threonine-protein kinase Nek2 (Homo sapiens, UniProt P51955); format: functional
[4] = target: ALK tyrosine kinase receptor (Homo sapiens, UniProt Q9UM73); format: functional;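 further: ALK tested as one member of a kinase panel screen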
[5] = target: Casein kinase I isoform alpha (Homo sapiens, UniProt P48729); format: functional
[6] = target: Glycogen synthase kinase-3 alpha (Homo sapiens, UniProt P49840); format: functional;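 further: GSK3A result taken from a broad kinome-wide kinase panel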
[7] = target: Tyrosine-protein kinase JAK2 (Homo sapiens, UniProt O60674); format: functional;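 further: JAK2 tested as one member of a kinase panel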
[8] = target: Insulin-like growth factor 1 receptor (Homo sapiens, UniProt P08069); experiment: Navigating the Kinome. Panel member name: IGF1R; format: functional
[9] = target: BDNF/NT-3 growth factors receptor (Homo sapiens, UniProt Q16620); format: functional;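 further: NTRK2 measured as one member of a broad kinome-wide kinase profiling panel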
[10] = target: Proto-oncogene tyrosine-protein kinase receptor Ret (Homo sapiens, UniProt P07949); format: functional;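 further: measured within a kinome-wide profiling panel, RET as the panel member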
Chain of Proto-oncogene tyrosine-protein kinase receptor Ret (P07949 whole entry): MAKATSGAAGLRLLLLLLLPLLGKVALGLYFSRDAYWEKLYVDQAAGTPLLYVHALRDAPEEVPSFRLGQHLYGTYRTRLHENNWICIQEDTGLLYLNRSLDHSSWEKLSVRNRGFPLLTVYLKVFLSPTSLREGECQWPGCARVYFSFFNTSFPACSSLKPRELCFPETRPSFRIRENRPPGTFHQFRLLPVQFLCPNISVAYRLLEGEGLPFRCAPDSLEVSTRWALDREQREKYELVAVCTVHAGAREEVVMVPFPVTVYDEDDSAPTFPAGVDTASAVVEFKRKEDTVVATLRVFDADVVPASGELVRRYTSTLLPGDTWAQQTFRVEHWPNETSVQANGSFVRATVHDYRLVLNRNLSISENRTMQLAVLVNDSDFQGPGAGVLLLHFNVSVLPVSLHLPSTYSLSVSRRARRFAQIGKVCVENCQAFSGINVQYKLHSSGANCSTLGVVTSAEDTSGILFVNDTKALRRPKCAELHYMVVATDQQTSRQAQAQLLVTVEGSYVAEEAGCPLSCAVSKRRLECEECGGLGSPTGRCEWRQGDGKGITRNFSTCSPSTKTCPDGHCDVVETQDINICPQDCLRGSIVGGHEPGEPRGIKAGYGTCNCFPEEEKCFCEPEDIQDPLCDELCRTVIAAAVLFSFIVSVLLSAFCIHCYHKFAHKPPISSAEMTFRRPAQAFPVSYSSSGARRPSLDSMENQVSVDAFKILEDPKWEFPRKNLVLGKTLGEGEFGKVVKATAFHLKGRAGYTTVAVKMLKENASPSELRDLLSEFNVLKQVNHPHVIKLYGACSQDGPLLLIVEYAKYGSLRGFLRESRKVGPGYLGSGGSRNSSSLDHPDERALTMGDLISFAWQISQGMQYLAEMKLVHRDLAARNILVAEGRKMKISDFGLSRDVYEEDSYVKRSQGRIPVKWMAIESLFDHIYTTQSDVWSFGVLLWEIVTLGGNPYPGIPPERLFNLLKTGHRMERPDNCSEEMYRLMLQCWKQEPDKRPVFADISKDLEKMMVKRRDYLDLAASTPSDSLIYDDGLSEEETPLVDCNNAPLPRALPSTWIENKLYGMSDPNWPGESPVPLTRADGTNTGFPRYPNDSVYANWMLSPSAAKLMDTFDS

Chain of ALK tyrosine kinase receptor (Q9UM73 whole entry, canonical isoform): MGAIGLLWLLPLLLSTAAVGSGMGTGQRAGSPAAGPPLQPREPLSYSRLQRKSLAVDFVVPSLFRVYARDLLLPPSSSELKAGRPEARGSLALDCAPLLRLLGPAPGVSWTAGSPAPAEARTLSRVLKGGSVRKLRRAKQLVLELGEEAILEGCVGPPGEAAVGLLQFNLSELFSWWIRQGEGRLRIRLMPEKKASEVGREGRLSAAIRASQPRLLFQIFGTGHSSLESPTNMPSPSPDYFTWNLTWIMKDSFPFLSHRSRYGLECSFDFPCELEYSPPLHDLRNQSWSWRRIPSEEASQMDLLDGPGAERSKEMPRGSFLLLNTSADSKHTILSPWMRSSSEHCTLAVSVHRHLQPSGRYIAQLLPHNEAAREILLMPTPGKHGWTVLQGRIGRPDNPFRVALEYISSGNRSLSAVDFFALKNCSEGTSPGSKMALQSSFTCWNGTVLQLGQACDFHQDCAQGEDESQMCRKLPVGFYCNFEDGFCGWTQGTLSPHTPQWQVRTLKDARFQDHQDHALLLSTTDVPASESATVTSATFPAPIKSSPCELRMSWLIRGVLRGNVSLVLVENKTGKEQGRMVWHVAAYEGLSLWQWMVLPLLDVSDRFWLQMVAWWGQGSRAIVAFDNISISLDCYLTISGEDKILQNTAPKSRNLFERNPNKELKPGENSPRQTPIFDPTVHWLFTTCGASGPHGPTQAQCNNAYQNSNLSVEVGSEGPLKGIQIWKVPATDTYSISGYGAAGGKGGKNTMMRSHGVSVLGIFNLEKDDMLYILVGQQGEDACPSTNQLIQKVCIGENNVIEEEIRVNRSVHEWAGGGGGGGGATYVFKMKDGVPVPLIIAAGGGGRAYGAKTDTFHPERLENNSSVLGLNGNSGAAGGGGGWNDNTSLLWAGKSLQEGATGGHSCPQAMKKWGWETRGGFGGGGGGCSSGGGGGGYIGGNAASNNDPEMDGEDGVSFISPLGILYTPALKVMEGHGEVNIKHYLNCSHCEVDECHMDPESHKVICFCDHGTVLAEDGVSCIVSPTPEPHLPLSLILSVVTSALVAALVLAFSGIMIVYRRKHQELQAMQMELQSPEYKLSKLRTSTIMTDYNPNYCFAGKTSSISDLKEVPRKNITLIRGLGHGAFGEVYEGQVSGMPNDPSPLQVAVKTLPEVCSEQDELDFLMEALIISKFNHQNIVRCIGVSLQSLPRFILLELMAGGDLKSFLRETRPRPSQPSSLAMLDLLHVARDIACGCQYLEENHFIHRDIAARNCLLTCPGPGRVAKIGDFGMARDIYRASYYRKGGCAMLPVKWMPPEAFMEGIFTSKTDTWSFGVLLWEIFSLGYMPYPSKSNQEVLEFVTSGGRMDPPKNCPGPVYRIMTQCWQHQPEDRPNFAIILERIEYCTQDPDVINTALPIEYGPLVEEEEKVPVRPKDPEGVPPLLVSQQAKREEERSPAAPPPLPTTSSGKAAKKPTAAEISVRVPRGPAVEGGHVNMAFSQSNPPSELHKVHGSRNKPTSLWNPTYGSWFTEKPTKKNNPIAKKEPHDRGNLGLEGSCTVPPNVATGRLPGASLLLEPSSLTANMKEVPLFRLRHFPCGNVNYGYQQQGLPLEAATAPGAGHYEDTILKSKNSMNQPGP
Chain of Serine/threonine-protein kinase Nek2 (P51955 whole entry): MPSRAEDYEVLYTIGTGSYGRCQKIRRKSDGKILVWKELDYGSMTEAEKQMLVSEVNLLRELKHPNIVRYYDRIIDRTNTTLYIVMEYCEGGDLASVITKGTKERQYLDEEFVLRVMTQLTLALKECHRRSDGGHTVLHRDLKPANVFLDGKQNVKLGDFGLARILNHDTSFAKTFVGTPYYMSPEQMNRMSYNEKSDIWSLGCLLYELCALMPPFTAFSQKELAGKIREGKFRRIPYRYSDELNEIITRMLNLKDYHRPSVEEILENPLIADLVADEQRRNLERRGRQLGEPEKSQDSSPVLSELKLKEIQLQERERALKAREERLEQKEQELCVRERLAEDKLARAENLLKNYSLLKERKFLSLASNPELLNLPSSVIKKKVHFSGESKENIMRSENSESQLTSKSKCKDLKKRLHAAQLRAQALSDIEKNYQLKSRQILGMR
Chain of Casein kinase I isoform alpha (P48729 whole entry, canonical isoform): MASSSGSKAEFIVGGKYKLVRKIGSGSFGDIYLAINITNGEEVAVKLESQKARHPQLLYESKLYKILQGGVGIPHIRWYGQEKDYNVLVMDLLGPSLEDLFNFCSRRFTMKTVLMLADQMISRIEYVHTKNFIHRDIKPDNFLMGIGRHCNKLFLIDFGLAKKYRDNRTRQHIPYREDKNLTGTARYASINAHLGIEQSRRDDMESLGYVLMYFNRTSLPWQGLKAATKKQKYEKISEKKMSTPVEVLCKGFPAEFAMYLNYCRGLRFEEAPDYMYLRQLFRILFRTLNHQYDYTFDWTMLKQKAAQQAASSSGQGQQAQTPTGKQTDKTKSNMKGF
Chain of Glycogen synthase kinase-3 alpha (P49840 whole entry): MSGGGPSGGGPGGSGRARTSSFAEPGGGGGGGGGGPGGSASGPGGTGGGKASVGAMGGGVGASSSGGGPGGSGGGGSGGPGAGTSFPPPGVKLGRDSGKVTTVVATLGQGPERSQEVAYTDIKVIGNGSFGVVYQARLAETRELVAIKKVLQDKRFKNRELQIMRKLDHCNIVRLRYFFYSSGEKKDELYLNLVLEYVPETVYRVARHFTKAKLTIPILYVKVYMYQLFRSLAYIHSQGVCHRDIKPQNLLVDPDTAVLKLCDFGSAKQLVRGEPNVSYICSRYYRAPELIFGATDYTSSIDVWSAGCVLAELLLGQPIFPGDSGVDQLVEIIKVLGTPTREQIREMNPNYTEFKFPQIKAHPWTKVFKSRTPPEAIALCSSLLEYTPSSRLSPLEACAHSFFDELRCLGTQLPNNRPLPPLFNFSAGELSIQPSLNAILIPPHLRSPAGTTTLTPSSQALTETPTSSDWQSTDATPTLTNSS
Chain of BDNF/NT-3 growth factors receptor (Q16620 whole entry): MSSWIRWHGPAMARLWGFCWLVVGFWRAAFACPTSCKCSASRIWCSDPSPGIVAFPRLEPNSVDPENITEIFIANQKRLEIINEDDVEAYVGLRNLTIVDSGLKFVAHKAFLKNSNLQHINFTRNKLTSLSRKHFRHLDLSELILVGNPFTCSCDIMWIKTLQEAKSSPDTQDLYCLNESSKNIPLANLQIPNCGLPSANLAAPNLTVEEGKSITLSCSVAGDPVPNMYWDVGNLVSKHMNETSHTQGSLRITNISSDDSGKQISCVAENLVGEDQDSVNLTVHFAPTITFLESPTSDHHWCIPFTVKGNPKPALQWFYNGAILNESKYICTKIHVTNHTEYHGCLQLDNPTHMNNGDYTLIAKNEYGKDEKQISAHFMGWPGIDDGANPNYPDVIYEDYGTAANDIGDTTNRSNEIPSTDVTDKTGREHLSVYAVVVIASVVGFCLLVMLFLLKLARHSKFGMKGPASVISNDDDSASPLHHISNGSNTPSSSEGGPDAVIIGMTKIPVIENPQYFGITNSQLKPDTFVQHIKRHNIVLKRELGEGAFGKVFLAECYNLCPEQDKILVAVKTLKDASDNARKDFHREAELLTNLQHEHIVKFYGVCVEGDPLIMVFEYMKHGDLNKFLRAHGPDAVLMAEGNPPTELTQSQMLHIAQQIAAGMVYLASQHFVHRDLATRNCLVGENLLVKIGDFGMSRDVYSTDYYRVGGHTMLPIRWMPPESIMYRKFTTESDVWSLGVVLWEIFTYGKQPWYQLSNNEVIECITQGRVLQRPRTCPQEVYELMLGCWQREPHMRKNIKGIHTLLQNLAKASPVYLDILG

Compound: CCCNC(=O)c1c(N)n(CC2CCCO2)c2nc3ccccc3nc12 (stereo not given)
IC50 [1]: 58600 nM (active)

Compound: O=C1/C(=C\c2cccc(O)c2O)SC(=S)N1Cc1ccccc1
AC50 [2]: 1260 nM (active)

Compound: CC(C)(C)c1cc[n+](C2=C([N-]S(=O)(=O)c3cccs3)C(=O)c3ccccc3C2=O)cc1
AC50 [2]: 3180 nM (active)

Ki [3]: 316 nM (active)
Ki [4]: 1260 nM (active)
Ki [5]: 1580 nM (active)
Ki [6]: 1000 nM (active)
Ki [7]: 2000 nM (active)
Ki [8]: > 2510 nM (inactive)
Ki [9]: 3160 nM (active)
Ki [10]: 1260 nM (active)
Compound: COc1c(-c2nc3ccccc3[nH]2)c(O)cc2oc(C)cc(=O)c12

Ki [4]: 25100 nM (active)
Ki [5]: 6310 nM (active)
Ki [7]: 79400 nM (active)
Ki [10]: 63100 nM (active)
Compound: COC(=O)c1c(N)nc2ccccn12

Compound: CCc1ccc(S(=O)(=O)/N=C2\C=C(Nc3ccc(O)cc3)C(=O)c3ccccc32)cc1
IC50 [1]: 1970 nM (active)

Ki [3]: > 3160 nM (inactive)
Ki [6]: > 3980 nM (inactive)
Ki [8]: > 2510 nM (inactive)
Ki [9]: 631 nM (active)
Compound: Cc1ccc(F)c(NC(=O)Nc2ccc(-c3cccc4[nH]nc(N)c34)cc2)c1 [LINIFANIB]
